The experiment has as its target Glutamate receptor 2 (Homo sapiens, UniProt P42262). The experiment can be described thus: Positive allosteric modulation of GluA2Q flop isoform (unknown origin) expressed in HEK293 cells assessed as increase in L-glutamate induced calcium flux after 1 hr by fluo-4AM dye-based fluorescence assay. The format is cell-based. For orientation: A change in cytosolic calcium serves as a functional read-out for many receptors and channels.

Structures are written as SMILES.

Sequence of Glutamate receptor 2 (P42262 whole entry, canonical isoform): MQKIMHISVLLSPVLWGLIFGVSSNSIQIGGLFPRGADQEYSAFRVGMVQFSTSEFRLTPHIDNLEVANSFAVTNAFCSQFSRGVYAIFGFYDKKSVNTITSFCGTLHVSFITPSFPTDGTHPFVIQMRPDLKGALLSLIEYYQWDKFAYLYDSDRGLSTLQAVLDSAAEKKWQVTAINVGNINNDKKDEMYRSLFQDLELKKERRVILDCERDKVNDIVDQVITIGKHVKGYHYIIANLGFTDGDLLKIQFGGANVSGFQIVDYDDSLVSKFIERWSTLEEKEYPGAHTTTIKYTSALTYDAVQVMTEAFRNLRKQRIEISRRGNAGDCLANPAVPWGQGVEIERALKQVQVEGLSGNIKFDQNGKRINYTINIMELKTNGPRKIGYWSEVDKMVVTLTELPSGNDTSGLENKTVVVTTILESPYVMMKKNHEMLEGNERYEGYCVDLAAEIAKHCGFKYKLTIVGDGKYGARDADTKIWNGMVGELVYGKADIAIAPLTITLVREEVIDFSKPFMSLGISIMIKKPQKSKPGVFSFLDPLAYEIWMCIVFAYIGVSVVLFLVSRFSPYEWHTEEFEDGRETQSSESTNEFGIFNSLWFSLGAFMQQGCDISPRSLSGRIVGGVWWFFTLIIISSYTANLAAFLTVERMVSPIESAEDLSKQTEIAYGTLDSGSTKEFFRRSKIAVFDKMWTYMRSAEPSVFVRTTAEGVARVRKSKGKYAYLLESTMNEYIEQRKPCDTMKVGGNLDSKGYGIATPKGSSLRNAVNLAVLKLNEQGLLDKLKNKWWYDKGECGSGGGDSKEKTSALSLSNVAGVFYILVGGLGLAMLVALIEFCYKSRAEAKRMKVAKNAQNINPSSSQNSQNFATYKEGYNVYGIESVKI

Take `CN1CNS(=O)(=O)c2ccccc21`: for the setting “read-out: EC50”, the EC50 is 176 µM.
On to `O=S1(=O)NCN(C2CC2)c2ccccc21`, for which the EC50 (read-out: EC50) came to 9.06 µM.
Regarding `CN1CNS(=O)(=O)c2ccc(CCc3ccc4c(c3)N(C)CNS4(=O)=O)cc21`, the EC50 is, setting by setting: (read-out: EC50) 0.0134 µM; (read-out: pEC50 (converted)) 0.0145 µM.
As for `Cc1ccc2c(c1)N(C1CC1)CNS2(=O)=O`, the EC50 was 48.2 µM (read-out: EC50) and 49 µM (read-out: pEC50 (converted)).
`Cc1ccc2c(c1)N(C)CNS2(=O)=O`: the EC50 (read-out: EC50) is 403 µM.
As to `O=S1(=O)NCN(C2CC2)c2cc(CCc3ccc4c(c3)N(C3CC3)CNS4(=O)=O)ccc21`, under “read-out: EC50”, the EC50 was determined as 0.0014 µM.

Source of the values: ChEMBL document CHEMBL4190392, “Enhancing Action of Positive Allosteric Modulators through the Design of Dimeric Compounds” (J Med Chem, 2018).
